ChEMBL document CHEMBL1201862, “PubChem BioAssay data set” (2004)
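96-well plates; 48 h exposure; 5 concentrations. Endpoints by linear interpolation between flanking doses. Not reached: highest tested concentration assigned. GI50 is the concentration that inhibits growth by half.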 Calls of active or inactive are those of the source. Cut-off read from the data, not from the text of the source: active = GI50 up to about 1.1 µM and inactive = higher.

What was measured:
Test in all cases: inhibition of tumour cell growth, NCI panel, 48 h
[1] = test system: SW-620
[2] = test system: SF-268
[3] = test system: UACC-257
[4] = test system: OVCAR-5
[5] = test system: RPMI-8226
[6] = test system: SK-MEL-2
[7] = test system: NCI/ADR-RES
[8] = test system: NCI-H522
[9] = test system: MCF7
[10] = test system: OVCAR-8
[11] = test system: NCI-H460
[12] = test system: UO-31
[13] = test system: COLO 205
[14] = test system: IGROV-1
[15] = test system: HCT-15
[16] = test system: SN12C
[17] = test system: HCT-116
[18] = test system: K562
[19] = test system: OVCAR-4
[20] = test system: SR

| SMILES | GI50 [1] | GI50 [2] | GI50 [3] | GI50 [4] | GI50 [5] | GI50 [6] | GI50 [7] | GI50 [8] | GI50 [9] | GI50 [10] | GI50 [11] | GI50 [12] | GI50 [13] | GI50 [14] | GI50 [15] [µM] | GI50 [16] | GI50 [17] | GI50 [18] | GI50 [19] | GI50 [20] |
| --- | --- | --- | --- | --- | --- | --- | --- | --- | --- | --- | --- | --- | --- | --- | --- | --- | --- | --- | --- | --- |
| CN(CC(=O)N1CC(CCl)c2ccc([N+](=O)[O-])cc21)CC(=O)N1CC(CCl)c2ccc([N+](=O)[O-])cc21 (centres undefined) | > 100 µM (inactive) | > 100 µM (inactive) | > 100 µM (inactive) | > 100 µM (inactive) | 95.9 µM (inactive) | 97.9 µM (inactive) | > 100 µM (inactive) | 7.73 µM (inactive) | > 100 µM (inactive) | > 100 µM (inactive) | > 100 µM (inactive) | > 100 µM (inactive) | > 100 µM (inactive) | 34.9 µM (inactive) | > 100 | > 100 µM (inactive) | > 100 µM (inactive) | > 100 µM (inactive) | – | – |
| CC1(n2nc(-c3ccccc3)n(-c3ccccc3)c2=O)CSC1 | > 100 µM (inactive) | > 100 µM (inactive) | > 100 µM (inactive) | > 100 µM (inactive) | > 100 µM (inactive) | > 100 µM (inactive) | – | > 100 µM (inactive) | – | > 100 µM (inactive) | > 100 µM (inactive) | > 100 µM (inactive) | > 100 µM (inactive) | > 100 µM (inactive) | > 100 | > 100 µM (inactive) | > 100 µM (inactive) | > 100 µM (inactive) | > 100 µM (inactive) | > 100 µM (inactive) |
| CS/C(=N\c1ccccc1)N(c1ccccc1)c1nc(=[N+](C)C)ss1.[O-][Cl+3]([O-])([O-])[O-] | 1.36 µM (inactive) | 5.13 µM (inactive) | 2.05 µM (inactive) | 15.3 µM (inactive) | 0.22 µM (active) | 2.01 µM (inactive) | – | 0.353 µM (active) | – | 2.44 µM (inactive) | 0.0338 µM (active) | 15.1 µM (inactive) | 0.0647 µM (active) | 1.22 µM (inactive) | 2.26 | 3.2 µM (inactive) | 2.56 µM (inactive) | 0.27 µM (active) | 9.46 µM (inactive) | 2.16 µM (inactive) |
| CCOC(=O)c1c(-c2ccccc2)c(-c2ccccc2)cn1C | – | > 10 µM (inactive) | > 10 µM (inactive) | > 10 µM (inactive) | – | 8.15 µM (inactive) | 5.82 µM (inactive) | > 10 µM (inactive) | – | > 10 µM (inactive) | > 10 µM (inactive) | > 10 µM (inactive) | – | > 10 µM (inactive) | > 10 | > 10 µM (inactive) | – | > 10 µM (inactive) | > 10 µM (inactive) | 3.51 µM (inactive) |
| CN(C)CCN1C(=O)c2ccccc2C1(O)c1ccc(Cl)cc1 (centres undefined) | > 100 µM (inactive) | > 100 µM (inactive) | 24.8 µM (inactive) | > 100 µM (inactive) | > 100 µM (inactive) | – | 97.1 µM (inactive) | – | > 100 µM (inactive) | > 100 µM (inactive) | 93.1 µM (inactive) | 24.3 µM (inactive) | > 100 µM (inactive) | 39.3 µM (inactive) | > 100 | > 100 µM (inactive) | 63.5 µM (inactive) | > 100 µM (inactive) | > 100 µM (inactive) | – |
| CCOC(=O)NNC(=O)NCCCCNC(=O)NNC(=O)OCC | > 100 µM (inactive) | – | > 100 µM (inactive) | > 100 µM (inactive) | > 100 µM (inactive) | > 100 µM (inactive) | > 100 µM (inactive) | > 100 µM (inactive) | – | > 100 µM (inactive) | > 100 µM (inactive) | > 100 µM (inactive) | > 100 µM (inactive) | > 100 µM (inactive) | > 100 | > 100 µM (inactive) | > 100 µM (inactive) | > 100 µM (inactive) | – | – |
| CN(C)CCC(/C=C/c1ccccc1)=N\Nc1c(F)c(F)c(F)c(F)c1F | > 100 µM (inactive) | > 100 µM (inactive) | 26.4 µM (inactive) | > 100 µM (inactive) | 24.8 µM (inactive) | 41.6 µM (inactive) | – | 64.1 µM (inactive) | – | 53.8 µM (inactive) | 27.7 µM (inactive) | 76.4 µM (inactive) | > 100 µM (inactive) | > 100 µM (inactive) | 56.8 | 64.6 µM (inactive) | > 100 µM (inactive) | 39.4 µM (inactive) | > 100 µM (inactive) | 28.4 µM (inactive) |
| Oc1cccc(-c2ccc3c4c2O[C@H]2c5[nH]c6ccccc6c5C[C@@]5(O)[C@@H](C3)N(CC3CC3)CC[C@]425)c1 | 1.88 µM (inactive) | 1.68 µM (inactive) | – | 1.96 µM (inactive) | – | 2.46 µM (inactive) | 2.11 µM (inactive) | – | – | 1.83 µM (inactive) | – | 1.67 µM (inactive) | 2.44 µM (inactive) | 1.74 µM (inactive) | 1.67 | 1.67 µM (inactive) | 1.82 µM (inactive) | – | 1.61 µM (inactive) | – |
| COc1ccc(S(=O)(=O)N/N=C(\C)CN2C(=O)c3ccccc3C2=O)cc1 | > 100 µM (inactive) | > 100 µM (inactive) | > 100 µM (inactive) | > 100 µM (inactive) | > 100 µM (inactive) | > 100 µM (inactive) | – | > 100 µM (inactive) | – | > 100 µM (inactive) | > 100 µM (inactive) | > 100 µM (inactive) | > 100 µM (inactive) | > 100 µM (inactive) | > 100 | > 100 µM (inactive) | > 100 µM (inactive) | > 100 µM (inactive) | > 100 µM (inactive) | > 100 µM (inactive) |
| Cc1cccc(NC(=O)/C=C/c2ccccc2)c1C | > 100 µM (inactive) | > 100 µM (inactive) | > 100 µM (inactive) | > 100 µM (inactive) | > 100 µM (inactive) | > 100 µM (inactive) | – | > 100 µM (inactive) | > 100 µM (inactive) | > 100 µM (inactive) | > 100 µM (inactive) | – | > 100 µM (inactive) | – | > 100 | > 100 µM (inactive) | > 100 µM (inactive) | > 100 µM (inactive) | > 100 µM (inactive) | > 100 µM (inactive) |
| O=C(Nc1ccccc1)C(=O)C(C(=O)c1ccccc1F)C1OC(=O)c2ccccc21 (centres undefined) | 41.9 µM (inactive) | 21.1 µM (inactive) | 66.5 µM (inactive) | 81.5 µM (inactive) | 35.1 µM (inactive) | 23.9 µM (inactive) | – | 21.5 µM (inactive) | – | 19.5 µM (inactive) | 37.7 µM (inactive) | 47.3 µM (inactive) | 22.4 µM (inactive) | 71.4 µM (inactive) | 22.9 | 37.1 µM (inactive) | 18.9 µM (inactive) | 44.7 µM (inactive) | 31.6 µM (inactive) | 21.5 µM (inactive) |
| ClC1=NN=C(c2c[nH]c3ccccc23)CC1NCc1ccccc1 (centres undefined) | > 100 µM (inactive) | > 100 µM (inactive) | > 100 µM (inactive) | > 100 µM (inactive) | > 100 µM (inactive) | > 100 µM (inactive) | > 100 µM (inactive) | > 100 µM (inactive) | – | > 100 µM (inactive) | > 100 µM (inactive) | > 100 µM (inactive) | > 100 µM (inactive) | 97.7 µM (inactive) | > 100 | > 100 µM (inactive) | > 100 µM (inactive) | > 100 µM (inactive) | – | – |
| CCN(CC)c1ccc(C2SCC(=O)N2c2ccc(NC(=O)c3ccc(N4C(=O)CSC4c4ccc(N(CC)CC)cc4)cc3)cc2)cc1 (centres undefined) | > 100 µM (inactive) | > 100 µM (inactive) | > 100 µM (inactive) | > 100 µM (inactive) | – | > 100 µM (inactive) | > 100 µM (inactive) | > 100 µM (inactive) | 79.4 µM (inactive) | > 100 µM (inactive) | > 100 µM (inactive) | > 100 µM (inactive) | > 100 µM (inactive) | > 100 µM (inactive) | > 100 | > 100 µM (inactive) | > 100 µM (inactive) | 47.6 µM (inactive) | 70.8 µM (inactive) | – |
| Cc1cc(O)nc(NNC(C#N)c2cccc(O)c2)n1 (centres undefined) | > 100 µM (inactive) | > 100 µM (inactive) | > 100 µM (inactive) | > 100 µM (inactive) | > 100 µM (inactive) | > 100 µM (inactive) | – | > 100 µM (inactive) | – | > 100 µM (inactive) | > 100 µM (inactive) | > 100 µM (inactive) | > 100 µM (inactive) | > 100 µM (inactive) | > 100 | > 100 µM (inactive) | > 100 µM (inactive) | > 100 µM (inactive) | > 100 µM (inactive) | > 100 µM (inactive) |
| Oc1cc(-c2ccc(F)cc2)nc2ncccc12 | 38.2 µM (inactive) | 62.1 µM (inactive) | 30.5 µM (inactive) | 98.9 µM (inactive) | 37.1 µM (inactive) | 33.5 µM (inactive) | 32.9 µM (inactive) | 35.4 µM (inactive) | 38.5 µM (inactive) | 77.8 µM (inactive) | – | 34.4 µM (inactive) | 20.2 µM (inactive) | 67.5 µM (inactive) | 34.2 | > 100 µM (inactive) | – | 22.2 µM (inactive) | 78.9 µM (inactive) | – |
| C[N+]1(CCCC[N+]2(C)CCCCCCC2)CCCCCCC1 | > 100 µM (inactive) | > 100 µM (inactive) | > 100 µM (inactive) | > 100 µM (inactive) | > 100 µM (inactive) | > 100 µM (inactive) | > 100 µM (inactive) | > 100 µM (inactive) | – | > 100 µM (inactive) | > 100 µM (inactive) | > 100 µM (inactive) | – | > 100 µM (inactive) | > 100 | > 100 µM (inactive) | > 100 µM (inactive) | > 100 µM (inactive) | > 100 µM (inactive) | > 100 µM (inactive) |
